Here are results for three compounds from patent US5821231A, “CS-1 peptidomimetics, compositions and methods of using same” (Cytel Corporation, priority 1995, dated 1998).

Square brackets hold non-standard residues; d marks the D form. Peptide text beside a SMILES is read from it. * marks the point of attachment. PhAc = O=C(Cc1ccccc1)*

One series has as its system SJL/J mice. Briefly: Experimental autoimmune encephalomyelitis in mice. The note with it: 1 mg/mouse i.p. at days 8 and 9; FIG. 6; versus control compound. It is filed as in vivo. The protocol: EAE was induced in female SJL/J mice (8 to 14 weeks old) by immunization on day zero with 50 μg of a compound corresponding to positions 139-151 of PLP emulsified in a 1:1 mixture of PBS and complete Freund's adjuvant (CFA). Each mouse was injected with 0.2 ml of the adjuvant emulsion subcutaneously (s.c.) at two sites in the hind flank. All mice received 10^7 killed Bordetella pertussis units in 100 μl were injected intravenously 24 to 72 hours later.
Mice were observed daily, beginning at day 8 for clinical signs of EAE, and disease was scored on a scale of 0-5 as: 0=no disease; 1=floppy tail; 2=moderate hind limb weakness; 3=paraparesis; 4=paraplegis with moderate forelimb weakness; 5=qualdriplegis or premoribund state.
The inhibitor compound, Compound ID No. 896.52, N-phenylacetyl-Leu-Asp-Phe-D-Pro-NH2 was administered intraperitoneally at 1 mg/mouse in 0.2 ml of incomplete Freund's adjuvant at days 8 and 9. A compound having a scrambled sequence [N-phenylacetyl-Asp-Leu-Phe-D-Pro-NH2 ] was similarly administered to serve as a control.
Summed or averaged scores for clinical signs were plotted vs. time. The area under the resulting curves was calculated between day 8 and day 35 to calculate percentage inhibition of EAE by an inhibitor compound. The percent inhibition was calculated as follows:
[…]

Another series concerns asthmatic sheep. Briefly: Treatment of asthmatic sheep (Ascaris suum antigen, crossover). The note with it: nebulized 1 mg/kg; FIG. 7. The format is in vivo. On the procedure: Six asthmatic sheep were treated in a double blind cross-over study. […] This study was carried out generally as described in Abraham et al., J. Clin. Invest., 93:776-787 (1994).
The inhibitor compound used here was Compound ID No. 896.52, N-phenylacetyl-Leu-Asp-Phe-D-Pro-NH2, with a control compound that comprised the previously described compound having the same residues in a scrambled sequence. The vehicle for the nebulized compounds was phosphate-buffered saline. The compounds were administered at a dose of 1 mg/kg each, twice a day for three days prior to challenge, as well as 0.5 hours prior to and four hours post challenge on day 4. Because this was a crossover study, each animal received one or the other treatment, followed by a rest and then the other treatment. Each animal therefore served as its own control.
Post challenge airway responsiveness was also assayed. Here, specific lung resistance, SRL, returned to baseline values 24 hours after challenge, however, the sheep were hyperresponsive to inhaled carbachol at that time.

Series [1] concerns New Zealand white rabbits. Briefly: Rabbit heterotopic cardiac allograft model. The format is in vivo. The text has this:
New Zealand white female rabbits (Charles River Lab., Saint Laurent, Quebec), between 3.5 and 4 kg underwent heterotopic cardiac transplant following an experimental protocol previously described [Alonso et al., Am. J. Pathol., 87:415-442 (1977); Clausell et al., Circulation, 89:2768-2779 (1994)]. The animals were unselected to favor an HLA-mismatch, the host rabbits were Pasteurella-free and the donors, outbred animals. Both host and donor rabbits were fed Purina 5321-0.5 percent cholesterol diet (Research Diets Inc., New Brunswick, N.J.), a strategy that has proven useful in accelerating the process of allograft arteriopathy [Alonso et al., Am, J. Pathol., 87:415-442 (1977)]. The diet was commenced four days prior to the transplant and continued in the recipient of the transplant until the completion of the experimental period.
The technique of heterotopic cardiac transplantation has been previously described [Clausell et al., Circulation, 89:2768-2779 (1994)]. Briefly, a vertical incision was performed in the anterior aspect of the neck of the recipient rabbit and the left common carotid artery and the ipsilateral external jugular vein were isolated. The cardiac allograft was placed in the neck by anastomosing the aorta end-to-side to the recipient's carotid artery and the pulmonary end-to-side to the recipient's external jugular vein, following a total period of ischemia for the donor hearts of approximately 30 minutes. Postoperative care was in compliance with the Principles of Laboratory Animal Care formulated by the Canadian National Society for Medical Research.
Beginning the day of the transplant, the animals were randomized and treated with either scrambled compound (control group) at 1 mg/kg s.c. or the inhibitor compound at 1 mg/kg s.c. The doses of the compounds were empirically extrapolated to the in vivo model based on preliminary in vitro studies, of Table 1. No other immunosuppression therapy was administered. The grafts were monitored daily by palpation and maintained for 7 to 8 days, a previously described endpoint that was associated with myocardial rejection (impaired cardiac contractility) and development of the allograft arteriopathy in this model [Clausell et al., Circulation, 89:2768-2779 (1994)]. A total of fourteen animals were studied in the control (n=7) and treated (n=7) groups.
The animals were sacrificed using a lethal dose of euthanol (480 mg i.v.) (MTC Pharmaceutical, Cambridge, ON), host and donor hearts were removed, and the coronary arteries were perfused with saline through the aorta, followed by light fixation by perfusion with 2 percent paraformaldehyde (Sigma, St, Louis, Mo.). […] Different sections of the hearts were either saved in 10 percent formalin (BDH Inc., Toronto, ON) for light microscopy studies or immediately frozen in O.T.C. Compound Tissue Tek (Miles Inc., Elkart, Ind.) for specific immunohistochemistry studies.
Three different paraffin-embedded tissue sections from host and donor hearts from both control and treated rabbits were stained by the Movat pentachrome method for light microscopy. Morphometric analysis was performed using a Zeiss microscope attached to a computer-generated video analysis system (Perceptics Inc., NuVision software), as described in Clausell et al., Circulation, 89:2768-2779 (1994). The number of vessels with intimal lesions were counted in all three heart sections from each animal studied and are expressed as a percentage of the total vessel number.
In the host hearts, 999 vessels in the control group and 1054 vessels in the treated group were analyzed. In the donor hearts, 827 vessels in the control group and 617 vessels in the treated group were analyzed. To determine the severity of intimal thickening, the diameter of each traceable vessel in all three sections was measured and the coronary arteries were categorized as small (diameter <100 μm), medium (diameter >100<500 μm) and large (diameter >500 μm). […]

A further series relates to BALB/c mice. Put plainly: Adoptive transfer delayed type hypersensitivity in mice (oxazolone). The format is in vivo, mouse. On the procedure: An adoptive transfer delayed-type hypersensitivity murine model has been developed using splenic T cells primed to oxazolone. This model is described in Elices et al., Clin. Exp. Rheum., 11(Suppl. 8):577-580 (1993), whose procedures were followed here.
Thus, BALB/c mice were shaved on the belly and painted (50 μl on the belly and 5 μl on each paw) with three percent oxazolone in acetone/olive oil (4:1) at days zero and 1. At day 5, the mice were sacrificed, their spleens removed, and splenic T cells were obtained via nylon wool columns.
Normal saline or saline containing 25×10^6 /animal of the oxazolone-immune T cells were separately injected into naive mice. The mice were then challenged by painting 10 μl of 2 percent oxazolone onto one ear each. All procedures were carried out under sterile conditions and in endotoxin-free buffers.
Prior to challenge or saline injection, the mice were implanted with pumps that subcutaneously administered normal saline, normal saline containing the compound, Compound ID No. 896.52, N-phenylacetyl-Leu-Asp-Phe-D-Pro-NH2, or normal saline containing a compound with a scrambled sequence continually at 6 mg/kg/day for a 24-hour time period. The swelling diameter at the site of challenge or saline injection was measured with a microcaliper 24 hours thereafter.
An expanded study was carried out as described above except that a scrambled compound control was not used as a control for further inhibitor compounds of Table 1 with larger groups of mice. Statistical analyses were carried out versus injection of vehicle alone.

Series [2] deals with Porcine peripheral blood lymphocytes. Put plainly: In vitro porcine allograft model: transendothelial lymphocyte migration. The format is cell-based. The note with it: 10 μg/ml in the medium; IL-1β-stimulated SMC. On the procedure:
A similar study was carried out in vitro using porcine coronary artery endothelial cells (EC; as are present in the IEL) and smooth muscle cells (SMC; as are present in the medial layer of the artery). The two cell types were cultured using a membrane transwell system, with the SMC on the bottom layer in M-199 medium (Gibco Labs.). The SMC were stimulated with 100 ng/ml of interleukin-1β (IL-1β) for 24 hours prior to the start of the assay. Porcine peripheral blood lymphocytes were separated by Ficoll-Hypaque, radiolabeled and incubated overnight (about 18 hours) on the EC.

Series [3] in a line: Retention of potency in PBS containing 10 percent mouse or human serum. It is filed as in vitro ADME. The note with it: 24 hours in PBS at 7.2-7.4 containing 10 percent mouse or human serum.
The next series deals with Jurkat T cell line. Put plainly: Jurkat cell binding to frozen human rheumatoid arthritis synovial sections. The note with it: 10-mer at 500 μg/ml. It is filed as cell-based. The protocol:
Binding studies were carried out using the Jurkat T cell line and frozen RA synovial sections. […] Stimulated MOLT-4 cells behaved similarly.
The absolute value of that IC50 value is about 0.5 μmolar.

A further series relates to immune T cells. The note with it: about 50 μg/ml admixed with immune T cells; Ferguson et al.; cited from earlier work.
Another series has as its target VLA-4 (Homo sapiens, UniProt P05556+P13612). The note with it: cited from earlier work.

VLA-4, sequence (P13612 34-1032): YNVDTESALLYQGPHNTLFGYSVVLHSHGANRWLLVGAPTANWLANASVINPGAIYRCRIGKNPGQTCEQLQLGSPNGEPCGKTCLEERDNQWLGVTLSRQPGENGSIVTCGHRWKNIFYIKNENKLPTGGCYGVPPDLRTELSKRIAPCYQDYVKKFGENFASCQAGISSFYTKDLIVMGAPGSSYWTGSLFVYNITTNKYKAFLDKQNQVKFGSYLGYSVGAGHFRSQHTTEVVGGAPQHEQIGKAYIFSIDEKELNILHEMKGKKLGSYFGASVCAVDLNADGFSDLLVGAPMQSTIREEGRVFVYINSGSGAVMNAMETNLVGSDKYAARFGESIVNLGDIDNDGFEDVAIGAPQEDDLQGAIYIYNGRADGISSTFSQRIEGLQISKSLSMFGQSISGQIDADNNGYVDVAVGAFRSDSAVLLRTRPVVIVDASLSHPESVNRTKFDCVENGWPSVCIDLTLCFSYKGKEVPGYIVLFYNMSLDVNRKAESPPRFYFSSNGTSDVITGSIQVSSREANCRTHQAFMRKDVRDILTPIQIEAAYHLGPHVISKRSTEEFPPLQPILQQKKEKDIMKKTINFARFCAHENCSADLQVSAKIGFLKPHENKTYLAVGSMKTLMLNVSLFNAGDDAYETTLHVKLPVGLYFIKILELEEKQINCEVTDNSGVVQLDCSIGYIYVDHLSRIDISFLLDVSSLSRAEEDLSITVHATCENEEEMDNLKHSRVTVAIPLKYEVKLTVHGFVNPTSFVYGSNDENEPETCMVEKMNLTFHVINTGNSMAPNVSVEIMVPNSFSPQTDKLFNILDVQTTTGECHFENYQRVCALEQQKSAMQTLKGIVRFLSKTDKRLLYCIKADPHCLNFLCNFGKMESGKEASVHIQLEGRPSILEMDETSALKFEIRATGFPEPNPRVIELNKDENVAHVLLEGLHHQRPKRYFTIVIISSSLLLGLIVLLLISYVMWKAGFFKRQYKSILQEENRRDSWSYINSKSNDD
VLA-4, sequence (P05556 21-798): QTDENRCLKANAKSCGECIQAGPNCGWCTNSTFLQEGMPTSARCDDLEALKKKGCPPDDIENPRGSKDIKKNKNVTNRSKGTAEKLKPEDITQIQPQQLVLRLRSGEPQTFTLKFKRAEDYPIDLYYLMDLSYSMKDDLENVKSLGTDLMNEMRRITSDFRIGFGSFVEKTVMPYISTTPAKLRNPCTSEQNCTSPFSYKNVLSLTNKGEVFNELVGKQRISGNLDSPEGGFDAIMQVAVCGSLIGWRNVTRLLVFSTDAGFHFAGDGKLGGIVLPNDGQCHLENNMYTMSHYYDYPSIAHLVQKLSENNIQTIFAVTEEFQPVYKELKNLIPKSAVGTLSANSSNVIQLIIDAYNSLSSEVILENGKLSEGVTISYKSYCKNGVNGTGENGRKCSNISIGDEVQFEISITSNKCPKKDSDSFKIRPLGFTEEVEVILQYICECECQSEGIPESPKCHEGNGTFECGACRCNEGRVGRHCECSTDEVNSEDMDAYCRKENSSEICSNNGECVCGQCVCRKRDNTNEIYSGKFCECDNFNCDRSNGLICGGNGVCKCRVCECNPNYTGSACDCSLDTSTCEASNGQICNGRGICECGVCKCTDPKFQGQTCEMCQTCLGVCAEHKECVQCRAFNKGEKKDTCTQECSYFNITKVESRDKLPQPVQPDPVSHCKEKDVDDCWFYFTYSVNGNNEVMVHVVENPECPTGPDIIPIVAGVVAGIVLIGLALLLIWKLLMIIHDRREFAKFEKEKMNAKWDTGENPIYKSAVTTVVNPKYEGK

In the case of `CC(C)C[C@H](NC(=O)Cc1ccccc1)C(=O)N[C@@H](CC(=O)O)C(=O)N[C@@H](Cc1ccccc1)C(=O)N1CCC[C@@H]1C(N)=O` [896.52, N-phenylacetyl-Leu-Asp-Phe-D-Pro-NH2] (PhAc-LDF[dP]-NH2), the “clinical signs of EAE” value in the series on SJL/J mice is “marked improvement in clinical signs”. The “change from baseline specific lung resistance (SRL) on challenge” value with asthmatic sheep was “less of a change from baseline specific lung resistance”. In [1] (donor heart, 1 mg/kg s.c.), the “Vessel Intimal Thickening: Percent of Vessels” value stood at 35% and the “Vessel Intimal Thickening: Severity (Percent of Vessel area)” value is 16%. Further, in series [1] (rabbit own host heart), the “Baseline of incidence of intimal thickening” value was found to be 12% and the “Baseline of severity of intimal thickening” value worked out at 12%. Further, in the series with BALB/c mice (expanded study, versus vehicle alone), the “Percent Inhibition (post-challenge swelling)” value is 36%. Moreover, the “reduction of inflammation (swelling diameter at challenge site)” value with BALB/c mice (initial study, 6 mg/kg/day s.c. pump, 24-hour, FIG. 5) is recorded as “reduced this type of CS-1/VLA-4-mediated immunoinflammation”. In addition, the “reduction of transendothelial lymphocyte migration” value in [2] is “about 30%”. Also, the “loss of potency in serum” value in [3] is listed as “no loss of potency”.
As to `CC[C@H](C)[C@H](NC(=O)[C@H](CCC(=O)O)NC(=O)[C@@H]1CCCN1C(=O)CN)C(=O)N[C@@H](CC(C)C)C(=O)N[C@@H](CC(=O)O)C(=O)N[C@H](C(=O)N1CCC[C@H]1C(=O)N[C@@H](CO)C(=O)N[C@H](C(=O)O)[C@@H](C)O)C(C)C` [SEQ ID NO:3, GPEILDVPST] (H-GPEILDVPST-OH), the “inhibition of Jurkat cell adhesion to RA synovial sections” value with Jurkat T cell line is on record as “could be inhibited”. Besides, the “abrogation of a transferred immune response” value in the series with immune T cells was “could abrogate a transferred immune response”.
Take Leu-Asp-Val [LDV]: at VLA-4, the “affinity of VLA-4 relative to native CS-1 25-mer” value was “at least two orders of magnitude lower affinity”.
